# Measurements from US7511144B2, “Reverse hydroxamic acid derivatives” (Kaken Pharmaceutical Co., Ltd., priority 2001, dated 2009).
# Columns and labels:
# Assay type in all cases: biochemical
# [1] = molecular target: T1, TACE (Homo sapiens, UniProt P78536); experiment: TACE inhibition experiment (in vitro)
# T1 construct: made in house; host or cells: mammalian cells or insect cells
# [2] = molecular target: T2, Human MMP1 (Homo sapiens, UniProt P03956); experiment: MMP1 inhibition experiment; details: read-out: IC50 value MMP-1
# T2 construct: purchased Calbiochem 444208
# T2 sequence (P03956 100-469): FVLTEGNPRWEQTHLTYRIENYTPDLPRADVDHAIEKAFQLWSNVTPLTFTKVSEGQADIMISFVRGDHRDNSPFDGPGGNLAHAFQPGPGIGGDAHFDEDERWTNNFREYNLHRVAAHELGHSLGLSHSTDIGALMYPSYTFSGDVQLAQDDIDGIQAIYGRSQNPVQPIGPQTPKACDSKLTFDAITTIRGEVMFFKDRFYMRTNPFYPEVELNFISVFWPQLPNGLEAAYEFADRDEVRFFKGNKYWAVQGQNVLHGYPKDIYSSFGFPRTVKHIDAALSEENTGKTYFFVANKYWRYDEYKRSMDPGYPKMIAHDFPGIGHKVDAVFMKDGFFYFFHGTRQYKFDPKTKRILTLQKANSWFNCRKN
# [3] = molecular target: T3, Human MMP2 (Homo sapiens, UniProt P08253); experiment: MMP2 inhibition experiment; details: concentration required for 50% inhibition of enzyme activity; read-out: IC50 value MMP-2
# T3 construct: purchased Calbiochem 444213
# T3 sequence (P08253 110-660): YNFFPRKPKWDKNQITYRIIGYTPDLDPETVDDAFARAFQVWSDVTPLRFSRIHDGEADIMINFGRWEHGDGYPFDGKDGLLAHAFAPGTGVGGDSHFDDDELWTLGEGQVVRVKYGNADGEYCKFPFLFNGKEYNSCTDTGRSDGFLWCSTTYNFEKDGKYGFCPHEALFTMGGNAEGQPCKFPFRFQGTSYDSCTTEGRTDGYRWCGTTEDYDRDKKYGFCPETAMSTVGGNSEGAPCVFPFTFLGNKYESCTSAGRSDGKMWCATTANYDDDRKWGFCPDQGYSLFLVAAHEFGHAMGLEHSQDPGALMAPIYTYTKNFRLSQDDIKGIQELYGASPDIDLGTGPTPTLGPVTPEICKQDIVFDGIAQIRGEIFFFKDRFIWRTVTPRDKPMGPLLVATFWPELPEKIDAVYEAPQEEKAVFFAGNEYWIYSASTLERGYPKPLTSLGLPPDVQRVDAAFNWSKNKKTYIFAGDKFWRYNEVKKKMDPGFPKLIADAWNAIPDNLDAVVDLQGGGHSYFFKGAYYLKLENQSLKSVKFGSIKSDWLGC
# [4] = molecular target: T4, Human MMP3 (Homo sapiens, UniProt P08254); experiment: MMP3 inhibition experiment; details: concentration required for 50% inhibition of enzyme activity; read-out: IC50 value MMP-3
# T4 construct: purchased Calbiochem 444217
# T4 sequence (P08254 100-272 limits assumed): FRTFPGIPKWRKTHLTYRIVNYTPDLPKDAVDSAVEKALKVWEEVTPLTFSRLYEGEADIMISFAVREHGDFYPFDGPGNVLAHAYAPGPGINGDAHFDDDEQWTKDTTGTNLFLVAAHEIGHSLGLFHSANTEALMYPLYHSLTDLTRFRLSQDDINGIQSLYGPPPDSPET
# Outline: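 Fluorescence-quenched substrate NFF-3 (MOCAc/Dnp peptide, 20 μM as prepared) cleaved by 5 ng human MMP3 over 5 hours at 37° C, with inhibition measured from substrate fluorescence.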
# [5] = molecular target: T5, Human MMP8 (Homo sapiens, UniProt P22894); experiment: MMP8 inhibition experiment; details: concentration required for 50% inhibition of enzyme activity; read-out: IC50 value MMP-8
# T5 construct: purchased Calbiochem 444229
# T5 sequence (P22894 101-467): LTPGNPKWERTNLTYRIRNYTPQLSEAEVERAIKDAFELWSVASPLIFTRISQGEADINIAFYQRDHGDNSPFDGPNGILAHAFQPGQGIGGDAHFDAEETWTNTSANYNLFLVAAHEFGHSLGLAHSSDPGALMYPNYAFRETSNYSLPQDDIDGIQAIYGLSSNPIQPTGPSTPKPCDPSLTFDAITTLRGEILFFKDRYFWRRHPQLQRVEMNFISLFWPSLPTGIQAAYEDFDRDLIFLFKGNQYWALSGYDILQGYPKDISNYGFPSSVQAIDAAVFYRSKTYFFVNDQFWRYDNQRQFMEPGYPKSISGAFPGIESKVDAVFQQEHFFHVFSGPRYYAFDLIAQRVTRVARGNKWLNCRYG
# Outline: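 Human MMP8 activated with APMA for 1 h at 37° C, then incubated with fluorogenic peptide MOCAc-Pro-Leu-Gly-Leu-A2pr(Dnp)-Ala-Arg-NH2 (20 μM stock) for 5 hours at 37° C. Fluorescent substrate cleavage serves as read-out.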
# [6] = molecular target: T6, Human MMP9 (Homo sapiens, UniProt P14780); experiment: MMP9 inhibition experiment; details: read-out: IC50 value MMP-9
# T6 construct: purchased Calbiochem 444231
# T6 sequence (P14780 107-707 limits assumed): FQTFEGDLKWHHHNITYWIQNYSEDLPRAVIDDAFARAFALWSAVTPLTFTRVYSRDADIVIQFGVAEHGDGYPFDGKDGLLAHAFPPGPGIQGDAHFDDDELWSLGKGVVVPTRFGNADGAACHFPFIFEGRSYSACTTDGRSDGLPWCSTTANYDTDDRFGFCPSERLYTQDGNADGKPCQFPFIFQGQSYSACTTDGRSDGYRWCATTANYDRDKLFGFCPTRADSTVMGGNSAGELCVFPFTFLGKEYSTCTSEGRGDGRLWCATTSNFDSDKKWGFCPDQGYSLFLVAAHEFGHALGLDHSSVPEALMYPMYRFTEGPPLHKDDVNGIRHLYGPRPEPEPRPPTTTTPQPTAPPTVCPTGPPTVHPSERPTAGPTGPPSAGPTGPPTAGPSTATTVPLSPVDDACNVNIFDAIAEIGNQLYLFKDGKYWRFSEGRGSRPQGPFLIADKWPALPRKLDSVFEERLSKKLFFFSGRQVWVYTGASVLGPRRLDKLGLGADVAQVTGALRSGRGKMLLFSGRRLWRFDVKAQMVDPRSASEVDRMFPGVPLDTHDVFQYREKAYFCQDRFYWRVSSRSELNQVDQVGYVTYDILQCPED
# [7] = molecular target: T7, Human MMP13 (Homo sapiens, UniProt P45452); experiment: MMP13 inhibition experiment; details: concentration required for 50% inhibition of enzyme activity; read-out: IC50 value MMP-13
# T7 construct: purchased Chemicon CC068
# [8] = molecular target: T8, Human MMP14 (Homo sapiens, UniProt P50281); experiment: MMP14 inhibition experiment; details: concentration required for 50% inhibition of enzyme activity; read-out: IC50 value MMP-14
# T8 construct: purchased Biogenesis or Calbiochem 5980-1461 or 475935
# Outline: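 Fluorescence assay: substrate Dnp-Pro-Cha-Gly-Cys(Me)-His-Ala-Lys(Nma)-NH2 (20 μM before equal-volume mixing) incubated at 37° C for 5 hours with 4 ng human MMP14.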
# [9] = molecular target: T9, Human MMP17 (Homo sapiens, UniProt Q9ULZ9); experiment: MMP17 inhibition test; details: concentration required for 50% inhibition of enzyme activity; read-out: IC50 value MMP-17
# T9 construct: purchased Calbiochem 475940
# T9 sequence (Q9ULZ9 126-300 limits assumed): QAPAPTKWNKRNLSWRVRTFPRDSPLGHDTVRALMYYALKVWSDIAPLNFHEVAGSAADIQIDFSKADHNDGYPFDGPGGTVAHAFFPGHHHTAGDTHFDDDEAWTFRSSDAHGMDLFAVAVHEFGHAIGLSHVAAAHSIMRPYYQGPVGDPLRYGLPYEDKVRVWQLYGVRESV
# T1 sequence (P78536 215-824): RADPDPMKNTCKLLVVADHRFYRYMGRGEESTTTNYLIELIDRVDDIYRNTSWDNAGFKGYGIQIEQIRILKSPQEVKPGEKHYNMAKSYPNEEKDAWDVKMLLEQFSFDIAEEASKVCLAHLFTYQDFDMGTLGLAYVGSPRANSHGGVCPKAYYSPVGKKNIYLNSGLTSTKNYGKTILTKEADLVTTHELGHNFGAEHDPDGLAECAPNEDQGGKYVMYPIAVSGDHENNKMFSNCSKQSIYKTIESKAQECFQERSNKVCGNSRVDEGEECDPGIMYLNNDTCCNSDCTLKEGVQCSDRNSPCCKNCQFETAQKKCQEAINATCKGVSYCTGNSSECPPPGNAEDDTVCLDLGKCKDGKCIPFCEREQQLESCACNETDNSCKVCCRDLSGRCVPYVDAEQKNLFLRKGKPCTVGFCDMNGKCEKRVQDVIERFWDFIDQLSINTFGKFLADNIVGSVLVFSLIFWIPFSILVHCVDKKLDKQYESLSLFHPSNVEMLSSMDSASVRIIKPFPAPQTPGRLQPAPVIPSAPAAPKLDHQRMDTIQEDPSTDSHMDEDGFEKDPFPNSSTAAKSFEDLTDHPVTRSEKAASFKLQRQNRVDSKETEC
Structure (SMILES),IC50 [1] [µM],IC50 [2] [µM],IC50 [3] [µM],IC50 [4] [µM],IC50 [5] [µM],IC50 [6] [µM],IC50 [7] [µM],IC50 [8] [µM],IC50 [9] [µM]
"Cc1ccc2nc(C)cc(COc3ccc(S(=O)(=O)CC(C=C4CCOCC4)N(O)C=O)cc3)c2c1 (stereo not drawn) [Example I-74, N-{2-[4-(2.6-dimethylquinolin-4-ylmethoxy)benzenesulfonyl]-1-(tetrahydropyran-4-ylidenemethyl)ethyl}-N-hydroxyformamide]",0.005,70,41,6,65,50,20,60,10
Cc1ccc2nc(C)cc(COc3ccc(S(=O)(=O)CC(C=C4CCC(=NO)CC4)N(O)C=O)cc3)c2c1 (stereo not drawn) [Example I-75],0.0041,65,50,5.5,90,35,22,40,11
Cc1ccc2nc(C)cc(COc3ccc(S(=O)(=O)CC(c4ccccc4C)N(O)C=O)cc3)c2c1 (stereo not drawn) [Example I-77],0.026,74,71,3,> 100,80,28,55,7.5
Cc1cncc(C(CS(=O)(=O)c2ccc(OCc3cc(C)nc4ccc(C)cc34)cc2)N(O)C=O)c1 (stereo not drawn) [Example I-78],0.0031,> 100,36,2.8,52,> 100,16,55,3.9
"Cc1cc(COc2ccc(S(=O)(=O)CC(c3ccccc3C)N(O)C=O)cc2)c2cc(F)ccc2n1 (stereo not drawn) [Example I-79, N-{2-[4-(6-fluoro-2-methylquinolin-4-ylmethoxy)benzenesulfonyl]-1-o-tolylethyl}-N-hydroxyformamide]",0.015,68,58,2.9,73,70,20,46,6.2
Cc1cncc(C(CS(=O)(=O)c2ccc(OCc3cc(C)nc4ccc(F)cc34)cc2)N(O)C=O)c1 (stereo not drawn) [Example I-80],0.0045,> 100,18,4,27,> 100,23,> 100,7
Cc1ccc(C(CS(=O)(=O)c2ccc(OCc3cc(C)nc4ccc(F)cc34)cc2)N(O)C=O)cn1 (stereo not drawn) [Example I-81],0.0051,> 100,11,2.2,20,> 100,17,64,8
Cc1ccccc1C(CS(=O)(=O)c1ccc(OCc2ccc3ccccc3n2)cc1)N(O)C=O (stereo not drawn) [Example I-82],3.5,92,4.2,50,> 100,32,26,38,30
O=CN(O)C(C=C1CCC2(CC1)OCCO2)CS(=O)(=O)c1ccc(OCc2ccc3ccccc3n2)cc1 (stereo not drawn) [Example I-83],2.5,> 100,7,37,> 100,53,23,55,36
O=CON=C1CCC(=CC(CS(=O)(=O)c2ccc(OCc3ccc4ccccc4n3)cc2)N(O)C=O)CC1 (stereo not drawn) [Example I-85],0.36,> 100,4.5,50,70,56,22,60,31

# Further lines, results first:
IC50 [1] [µM],IC50 [2] [µM],IC50 [3] [µM],IC50 [4] [µM],IC50 [5] [µM],IC50 [6] [µM],IC50 [7] [µM],IC50 [8] [µM],IC50 [9] [µM],Structure (SMILES)
0.42,> 100,5.8,61,> 100,70,22,70,31,O=CN(O)C(C=C1CCC(=NO)CC1)CS(=O)(=O)c1ccc(OCc2ccc3ccccc3n2)cc1 (stereo not drawn) [Example I-86]
0.14,> 100,4,40,6,> 100,8,> 100,42,Cc1cc(COc2ccc(S(=O)(=O)CC(C=C3CCOCC3)N(O)C=O)cc2)cc(C)n1 (stereo not drawn) [Example I-115]
0.16,> 100,26,70,28,> 100,39,> 100,42,COCc1cc(COc2ccc(S(=O)(=O)CC(C=C3CCOCC3)N(O)C=O)cc2)cc(C)n1 (stereo not drawn) [Example I-116]
0.62,> 100,12,20,20,> 100,28,> 100,22,COCc1cc(COc2ccc(S(=O)(=O)CC(c3ccccc3C)N(O)C=O)cc2)cc(C)n1 (stereo not drawn) [Example I-117]
0.23,> 100,20,30,32,> 100,31,> 100,40,COCc1cc(COc2ccc(S(=O)(=O)CC(C=C3CCC4(CC3)OCCO4)N(O)C=O)cc2)cc(C)n1 (stereo not drawn) [Example I-118]
0.32,> 100,50,> 100,60,> 100,60,> 100,58,COCc1cc(COc2ccc(S(=O)(=O)CC(C=C3CCC(=O)CC3)N(O)C=O)cc2)cc(C)n1 (stereo not drawn) [Example I-119]
0.11,> 100,22,68,27,> 100,62,> 100,33,COCc1cc(COc2ccc(S(=O)(=O)CC(C=C3CCC(=NO)CC3)N(O)C=O)cc2)cc(C)n1 (stereo not drawn) [Example I-120]
0.2,> 100,9,21,14,> 100,12,> 100,18,COCc1cc(COc2ccc(S(=O)(=O)CC(CC3CCC(=NO)CC3)N(O)C=O)cc2)cc(C)n1 (stereo not drawn) [Example I-122]
